Read-outs that look alike come from different tables or passages of the source.
Key:
wheat powdery mildew [1] = test: Test of control effect on wheat powdery mildew (Test Example 1); assay type: in vivo; settings: wettable powder 125 mg/l, 100 liters/10 a, sprinkled on wheat seedlings (Nourin 64) before inoculation, examined 9th to 14th day after inoculation; for pest or weed control at 125 µg/mL: Triticum aestivum
Method: Wettable powders were prepared from compounds of the present invention I-1 to I-27 and comparative compounds (a) to (d) , (m-1) and (m-3). The obtained wettable powder was diluted and suspended with water to provide the predetermined concentration (125 mg/l), and was sprinkled onto seedlings of wheat (variety: "Nourin 64") at the first to the second leaf period which were cultivated using square plastic pots (size: 6.4 cm x 6.4 cm) in a rate of 100 liters/10 a (ares). After drying the sprinkled leaves with air, a suspension of wheat powdery mildew spores taken from infected leaves was inoculated by spraying onto the sprinkled leaves. They were supervised in a green house (temperature: 20 to 24°C, relative humidity: 20 to 70 RH). On the 9th to 14th day after the inoculation, the infection degree was examined according to the following scale and the control value of each compound was calculated by the following calculation equation 1. [table] (Equation 1) Control value = (1 - infection degree of treated zone/infection degree of untreated zone) x 100 (%) [formula] The control values of each compound are shown in Table 8.

cucumber powdery mildew = test: Test of control effect on cucumber powdery mildew (Test Example 2); assay type: in vivo; settings: wettable powder 100 mg/l, 100 liters/10 a, sprinkled on cucumbers (Sagamihanpakufushinari) before inoculation, examined 9th to 14th day after inoculation; for pest or weed control at 100 µg/mL: Cucumis sativus
Method: The wettable powders formulated by using each of the compounds I-1 to 27 according to the present invention and the comparative compounds (a) to (d), (m-1) and (m-3) were each diluted and suspended with water to a predetermined concentration (100 mg/l), the suspension was sprinkled over the first to the second leaf period cucumbers (variety: "[…]") cultivated by using a square plastic pot (size: 6. 4 cm x 6. 4 cm) in a rate of 100 liters/10 a (ares). After the sprinkled leaves were air-dried, the spores were inoculated over the leaves by sprinkling the same with a brush from an infected leaf, a disease was contracted in a glass house (temperature: 20 to 24°C, relative humidity: 20 to 70 RH). On the 9th to 14th day after the inoculation, the infection degree was examined according to the following scale and the control value of each compound was calculated by the following calculation equation 2: [table] (Equation 2) Control value = (1 - infection degree of treated zone/infection degree of untreated zone) x 100 (%) [formula] The control values of each compound are shown in Table 9.

Botrytis cinerea = test: Antifungal activity test against various pathogenic fungi, hypha extension on PDA plates (Test Example 3); assay type: cell-based; settings: read-out: Growth Inhibition B.c (1.6)
Septoria tritici = test: as above; assay type: cell-based; settings: Zymoseptoria tritici, read-out: Growth Inhibition S.t (100)
wheat powdery mildew [2] = test: Permeable mobility fungicidal effect test in leaf section of wheat powdery mildew (Test Example 4); assay type: in vivo
Method: In the test example 4, permeable mobility fungicidal effect test was performedon the leaf section of wheat powdery mildew with regard to the compounds I-1 to 27 according to the present invention and the comparative compounds (a) to (d), and (m-1) to (m-3) with the method described later. The compound in the form of a wettable powder obtained by Formulation 2 or the like was diluted and suspended with water to a predetermined concentration (200mg/l), and 0.5 µl of the suspension was applied to a 2 to 3 cm leaf portion from the root of the three leaves of the 4th to 4.5th leaf period wheat (variety: Abukumawase) cultured by using a square plastic pot (size: 6.4 cm x 6.4 cm). After these wheat leaves were subject to still standing in a glass house (temperature: 20 to 24C, relative humidity: 20 to 70 RH) for one day, the spores of wheat powdery mildew were inoculated over the leaves by sprinkling the same with a brush from an infected leaf, a disease was contracted in the same glass house. The length of a non-contracted area generated from the applied portion to the direction of the leaf top was measured, and a relative mobility to the compound (m-2) was calculated with the following calculation […] by using the comparative compound (m-2) as a standard compound. (Equation 4) Relative mobility = (Length of non-contracted area in each chemical section (cm)/Length of non-contracted area of compound (m-2) (cm)) [formula]

Microdochium nivale = test: Antifungal activity test against various pathogenic fungi, hypha extension on PDA plates (Test Example 3); assay type: cell-based; settings: read-out: Growth Inhibition M.n (3.2)
Leptosphaeria nodorum = test: as above; assay type: cell-based; settings: Parastagonospora nodorum, read-out: Growth Inhibition L.n (0.8)
Rhynchosporium secalis = test: as above; assay type: cell-based; settings: read-out: Growth Inhibition R.s (100)
Pyrenophora graminea = test: as above; assay type: cell-based; settings: read-out: Growth Inhibition P.g (12.5)
Pyricularia oryzae = test: microbe, parasite or virus in culture; assay type: cell-based; settings: read-out: Growth Inhibition P.o (12.5)
Venturia inaequalis = test: Antifungal activity test against various pathogenic fungi, hypha extension on PDA plates (Test Example 3); assay type: cell-based; settings: read-out: Growth Inhibition V.i (3.2)
[3] = test system: Pseudocercosporella herpotrichoides; test: as above; assay type: cell-based; settings: Oculimacula yallundae, read-out: Growth Inhibition P.h (25)
[4] = 1.6 ppm in PDA culture medium, cultured 1 to 7 days
[5] = Septoria tritici, 100 ppm in PDA culture medium, cultured 1 to 7 days
[6] = length of non-contracted area relative to compound (m-2), 0.5 µl of 200 mg/l suspension applied to wheat leaf (Abukumawase), inoculated after one day
[7] = 3.2 ppm in PDA culture medium, cultured 1 to 7 days
[8] = Leptosphaeria nodorum, 0.8 ppm in PDA culture medium, cultured 1 to 7 days
[9] = 100 ppm in PDA culture medium, cultured 1 to 7 days
[10] = 12.5 ppm in PDA culture medium, cultured 1 to 7 days
[11] = Pseudocercosporella herpotrichoides, 25 ppm in PDA culture medium, cultured 1 to 7 days

| Structure (SMILES) | pest or weed control at 125 µg/mL (wheat powdery mildew [1]) [%] | pest or weed control at 100 µg/mL (cucumber powdery mildew) [%] | inhibition at 1.6 ppm (Botrytis cinerea; [4]) [%] | inhibition at 100 ppm (Septoria tritici; [5]) [%] | Relative Mobility (wheat powdery mildew [2]; [6]) | inhibition at 3.2 ppm (Microdochium nivale; [7]) [%] | inhibition at 0.8 ppm (Leptosphaeria nodorum; [8]) [%] | inhibition at 100 ppm (Rhynchosporium secalis; [9]) [%] | inhibition at 12.5 ppm (Pyrenophora graminea; [10]) [%] | inhibition at 12.5 ppm (Pyricularia oryzae) [%] | inhibition at 3.2 ppm (Venturia inaequalis; [7]) [%] | inhibition at 25 ppm [3, 11] [%] | other results |
| --- | --- | --- | --- | --- | --- | --- | --- | --- | --- | --- | --- | --- | --- |
| CC(Cc1ccc(C(F)(F)F)c(F)c1)CN(C)Cc1ccc(Cl)nc1 (stereo not shown) [Compound I-9, 6-chloro-N-[3-(3-fluoro-4-trifluoromethylphenyl)-2-methylpropyl]-N-methyl-3-pyridylmethylamine] | 100 | 100 | 70 to 90 | 70 to 90 | 3 | – | – | – | – | – | – | – | – |
| CC(Cc1ccc(OC(F)(F)F)c(F)c1)CN(C)Cc1ccc(Cl)nc1 (stereo not shown) [Compound I-17, 6-chloro-N-[3-(3-fluoro-4-trifluoromethoxyphenyl)-2-methylpropyl]-N-methyl-3-pyridylmethylamine] | 100 | 100 | > 90 | 70 to 90 | 10 | > 90 | > 90 | > 90 | 70 to 90 | 70 to 90 | 70 to 90 | > 90 | – |
| CC(Cc1ccc(C(F)(F)F)c(F)c1F)CN(C)Cc1ccc(Cl)nc1 (stereo not shown) [Compound I-10] | – | – | – | – | – | – | – | – | – | 70 to 90 | – | – | Control Value (wheat powdery mildew [1]): 100%; Control Value (cucumber powdery mildew): 100%; inhibition at 1.6 ppm (Botrytis cinerea): > 90%; inhibition at 3.2 ppm (Microdochium nivale): 70 to 90%; inhibition at 0.8 ppm (Leptosphaeria nodorum): 70 to 90%; inhibition at 100 ppm (Rhynchosporium secalis): 70 to 90%; inhibition at 12.5 ppm (Pyrenophora graminea): 70 to 90%; inhibition at 3.2 ppm (Venturia inaequalis): 70 to 90%; inhibition at 25 ppm [3]: > 90%; inhibition at 100 ppm (Septoria tritici): 70 to 90%; Relative Mobility (wheat powdery mildew [2]; 24 h, 200 ug/mL): 3 |
| CC(Cc1ccc(OC(F)(F)F)cc1)CN(C)Cc1ccc(Cl)nc1 (stereo not shown) [Compound I-12, 6-chloro-N-methyl-N-[3-(4-trifluoromethoxyphenyl)-2-methylpropyl]-3-pyridylmethylamine] | 100 | 100 | 70 to 90 | 70 to 90 | 10 | > 90 | > 90 | > 90 | 70 to 90 | 70 to 90 | 70 to 90 | > 90 | – |
| CC(Cc1ccccc1Cl)CN(C)Cc1ccc(Cl)nc1 (stereo not shown) [(c-2), 6-chloro-N-[3-(2-chlorophenyl)-2-methylpropyl]-N-methyl-3-pyridylmethylamine, reference compound] | 40 | 0 | 20 to 40 | – | 1 | 20 to 40 | 40 to 70 | 20 to 40 | 20 to 40 | 40 to 70 | 20 to 40 | – | – |
| CC(Cc1cc(F)cc(Cl)c1)CN(C)Cc1ccc(Cl)nc1 (stereo not shown) [Compound I-21, 6-chloro-N-[3-(3-chloro-5-fluorophenyl)-2-methylpropyl] -N-methyl-3-pyridylmethylamine] | 100 | 100 | > 90 | 70 to 90 | 9 | 70 to 90 | > 90 | > 90 | > 90 | 70 to 90 | 70 to 90 | > 90 | – |
| CC(Cc1cccc(F)c1)CN(C)Cc1ccc(Cl)nc1 (stereo not shown) [(c-4), 6-chloro-N-[3-(3-fluorophenyl)-2-methylpropyl]-N-methyl-3-pyridylmethylamine, reference compound] | 10 | 0 | < 20 | – | 1 | 20 to 40 | 40 to 70 | 20 to 40 | 20 to 40 | 40 to 70 | 20 to 40 | – | – |
| CC(Cc1cc(F)c(OC(F)(F)F)c(F)c1)CN(C)Cc1ccc(Cl)nc1 (stereo not shown) [Compound I-20, 6-chloro-N-[3-(3,5-difluoro-4-trifluoromethoxyphenyl)-2-methylpropyl]-N-methyl-3-pyridylmethylamine] | 100 | 100 | > 90 | 70 to 90 | 9 | 70 to 90 | > 90 | 70 to 90 | 70 to 90 | 70 to 90 | 70 to 90 | > 90 | – |
